Data taken from patent publication US20200085839A1, “COMBINATION OF IMMUNOTHERAPEUTICS AND BISFLUOROALKYL-1,4-BENZODIAZEPINONE COMPOUNDS FOR TREATING LYMPHOMAS” (Ayala Pharmaceuticals Inc., priority 2018, published 2020).
Entries after “also recorded” stand apart in the source; their conditions may differ.

Tests used:
Type in all cases: cell-based, human
[1] = system: B-ALL cell lines RSV411, REH, 018Z; assay: Cell surface BCMA by FACS, B-ALL cell lines; details: up to 10 μM, 24 h
Procedure: (§1) Cells were seeded at 1×10^4 cells/well in a total volume of 250 μl into a 96-well plate. The cells were cultured in RPMI supplemented with 10% FCS.
(§2) The tested compounds (Compound 1 and Compound 22) were added to the cell cultures at concentrations of: 0, 10, 1, 0.5, 0.1, 0.01, 0.001 μM ([…], 10 nM, 100 nM, 500 nM, 1000 nM, and 10000 nM). Following 24 hours of incubation at 37° C., the cells were collected and stained with anti-BCMA antibody and immediately analyzed by FACS.
The effect of γ-secretase inhibitors on cell surface BCMA levels in Acute B-Cell Lymphoblastic Leukemia (B-ALL) cell lines was also observed using flow cytometry (FIG. 5). Cells from three different B-ALL cell lines were treated for 24 hours with different concentrations (0-10 μM) of GSIs (Compound 1 and Compound 22).

[2] = system: U266 cells (MM cell line); assay: Cell-bound BCMA by flow cytometry; details: 24 h; for cell-bound BCMA levels: FIG. 1; for effectiveness at increasing cell-bound BCMA compared with other GSIs: all doses above 0.3 nM
Procedure: FIG. 1. Levels of cell-bound BCMA en multiple myelma (MM) cells Incubated with γ-secretase inhibitors (GSIs). U266 cells (MM cell line) were incubated with 0.3 nM, 0.5 nM, 1 nM or 3 nM of GSI (Compound 1, Compound 22, LY3039478 or PF3084014) for 24 hours, and BCMA levels were measured by flow cytometry.
(§3) For detecting levels of soluble and cell-bound BCMA, U266 cells (MM cell line) were seeded at 1×10^5 cells/well in a total volume of 250 μl into a 96-well plate. The cells were cultured in RPMI medium supplemented with 10% FCS. GSIs (Compound 1, Compound 22, LY3039478 (Lilly), and PF3084014 (Pfizer)) were added to U266 cell cultures at a concentration of 0.3 nM, 0.5 nM, 1 nM and 3 nM for soluble BCMA and at a concentration of […]. Following 24 hours of incubation at 37° C., the cells were collected, and BCMA levels were evaluated in both the cells (cell-bound BCMA) and the cell media (soluble BCMA). Cells were stained with an anti-BCMA antibody (PE anti-human CD269 BCMA, Biolegend). Soluble BCMA levels were analyzed by ELISA (Human BCMA/TNFRSF17 DuoSet kit: R&D Systems).

[3] = system: U266 cells (MM cell line); assay: Soluble BCMA in cell media by ELISA; details: for BCMA shedding: MM cells (U266), cell-bound and soluble BCMA
Procedure: FIG. 3. Levels of soluble BCMA In cell media after Incubation of multiple myeloma (MM) cells with γ-secretase inhibitors (GSIs). U266 cells (MM cell line) were incubated with 0.3 nM, 1 nM, 3 nM and 10 nM of GSI (Compound 1, Compound 22, LY3039478 or PF3084014) for 24 hours, and BCMA levels were measured by ELISA.
as §3

[4] = system: SP49, Toledo, RC, SUDHL-4 and SUDHL-6 lymphoma cell lines; assay: Cell surface BCMA by FACS, five lymphoma cell lines; details: SUDHL-4, SUDHL-6, 10 nM or more, 24 h
Procedure: as §1, §2
The effect of γ-secretase inhibitors on cell surface BCMA levels in lymphoma cell lines was observed using flow cytometry (FACS analysis) (FIG. 4). Cells from five different lymphoma cell lines were treated for 24 hours with different concentrations of Compound 1 (FIG. 4A) or Compound 22 (FIG. 4B). Lymphoma cell lines treated were: SP49 (MCL with Notch4 GOF); Toledo (DLBCL); RC (Double Hit DLBCL—MYC, BCL2); SUDHL-4 (DLBCL); and SUDHL-6 (DLBCL). GSI concentrations were 0, 1 nM, 10 nM, 100 nM, 500 nM, 1000 nM, and 10000 nM.

[5] = system: […] cell lines, comprising 9 subtypes of lymphomas; assay: Cell surface BCMA by FACS, lymphoma cell line panel
Procedure: […] cell lines, comprising 9 subtypes of lymphomas (see Table 1), were seeded at 1×10^5 cells/well in a total volume of 250 μl into a 96-well plate. The cells were cultured in RPMI medium supplemented with 10% FCS. Compound (22) was added to the cell cultures at a concentration of 10 μM, 1 μM, 100 nM, 10 nM, 1 nM, 100 pM, 10 pM, 1 pM, and 100 fM, and cell lines (8 from Hadassah Medical Center, 31 from Eurofins) were incubated at 37° C. for 24 hours with Compound (22). Following incubation, the cells were collected and BCMA levels were evaluated on the cell surface for cell-bound BCMA. Cells were stained with an anti-BCMA antibody (PE anti-human 19F2 BCMA, Biolegend), and cell surface BCMA levels were determined by FACS analysis (Mean Fluorescence Intensity. Soluble BCMA levels were analyzed by ELISA (Human BCMA/TNFRSF17 DuoSet kit: R&D Systems).

| Compound | BCMA expression [1] | cell-bound BCMA levels [2] | effectiveness at increasing cell-bound BCMA compared with other GSIs [2] | BCMA shedding [3] | cell surface BCMA levels [4] | cell-bound BCMA levels ([5]; B-ALL, histiocytic lymphoma, anaplastic large cell lymphoma, cutaneous T-cell lymphoma cell lines) | cell-bound BCMA levels ([5]; cell lines derived from Mantle Cell Lymphoma, DLBCL, Burkitt's Lymphoma, B-cell Lymphoma, 24 h) | cell-bound BCMA levels ([5]; cell lines from Hodgkin's Lymphoma patients) | increase of BCMA expression ([5]; certain lymphomas) | mBCMA ([5]; certain lymphomas) | potency in reducing soluble BCMA in cell media compared with other GSIs ([3]; U266, 24 h) |
| --- | --- | --- | --- | --- | --- | --- | --- | --- | --- | --- | --- |
| CN1C(=O)[C@@H](NC(=O)[C@H](CCC(F)(F)F)[C@H](CCC(F)(F)F)C(N)=O)N=C(c2ccccc2)c2ccccc21 [Compound 1, (2R,3S)—N-((3S)-1-methyl-2-oxo-5-phenyl-2,3-dihydro-1H-1,4-benzodiazepin-3-yl)-2,3-bis(3,3,3-trifluoropropyl)succinamide] | did not affect BCMA expression | increased cell-bound BCMA levels | as effective as LY3039478 and more effective than PF3084014 | inhibit BCMA shedding | elevated BCMA levels | – | – | – | – | – | – |
| Cc1cccc2c1NC(=O)[C@@H](NC(=O)[C@H](CCC(F)(F)F)[C@H](CCC(F)(F)F)C(N)=O)N=C2c1cccc(F)c1 [Compound (22), (2R,3S)—N-((3S)-5-(3-fluorophenyl)-9-methyl-2-oxo-2,3-dihydro-1H-1,4-benzodiazepin-3-yl)-2,3-bis(3,3,3-trifluoropropyl)succinamide] | did not affect BCMA expression | increased cell-bound BCMA levels | as effective as LY3039478 and more effective than PF3084014 | inhibit BCMA shedding | elevated BCMA levels | did not increase cell-bound BCMA levels | increased cell-bound BCMA levels | increased cell-bound BCMA levels | Compound (22) increases BCMA expression in certain lymphomas by 2-9 fold | increases mBCMA | more potent than Compound 1; also recorded: as potent as LY3039478; also recorded: more potent than PF3084014 |
